Consider four molecules from ChEMBL document CHEMBL5728754 (2021).

By pKi is commonly meant the Ki on a negative log10 scale, so that one unit is a factor of ten.

pKi: −log10 of the molar value. A value given as a limit tells only on which side of the number the result lay.

Sequence of Mitogen-activated protein kinase kinase kinase kinase 1 (Q92918 whole entry): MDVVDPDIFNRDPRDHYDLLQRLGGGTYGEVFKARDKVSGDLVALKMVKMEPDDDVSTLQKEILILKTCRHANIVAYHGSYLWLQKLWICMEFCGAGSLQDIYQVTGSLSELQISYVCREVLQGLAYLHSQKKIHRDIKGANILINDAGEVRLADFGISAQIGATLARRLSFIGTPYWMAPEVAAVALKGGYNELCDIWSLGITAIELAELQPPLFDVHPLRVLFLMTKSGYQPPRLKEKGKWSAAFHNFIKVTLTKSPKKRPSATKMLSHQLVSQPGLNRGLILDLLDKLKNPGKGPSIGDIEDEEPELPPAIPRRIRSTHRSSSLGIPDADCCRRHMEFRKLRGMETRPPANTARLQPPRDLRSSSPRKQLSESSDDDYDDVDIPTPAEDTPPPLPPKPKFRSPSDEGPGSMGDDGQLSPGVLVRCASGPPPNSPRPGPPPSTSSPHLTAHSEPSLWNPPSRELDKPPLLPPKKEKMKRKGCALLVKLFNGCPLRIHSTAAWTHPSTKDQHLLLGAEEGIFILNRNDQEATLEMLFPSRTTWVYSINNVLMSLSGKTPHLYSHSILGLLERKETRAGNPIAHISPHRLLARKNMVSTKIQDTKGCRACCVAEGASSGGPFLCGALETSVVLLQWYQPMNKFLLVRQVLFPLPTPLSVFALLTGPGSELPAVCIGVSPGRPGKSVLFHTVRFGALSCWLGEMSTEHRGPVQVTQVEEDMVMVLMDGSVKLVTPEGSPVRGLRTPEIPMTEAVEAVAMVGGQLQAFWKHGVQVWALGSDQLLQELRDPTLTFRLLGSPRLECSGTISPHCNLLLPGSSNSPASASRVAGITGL

This experiment addresses Mitogen-activated protein kinase kinase kinase kinase 1 (Homo sapiens, UniProt Q92918). Put plainly: HPK1 Biochemical Enzyme Assay: HPK1 enzyme inhibition was measured using a microfluidic mobility shift assay (MSA). The reactions were conducted in 50 μL volumes in 96-well plates, and contained 0.5 nM human full-length recombinant HPK1, 3 μM phosphoacceptor peptide, 5FAM-[…]-COOH (CPC Scientific, Sunnyvale, Calif.), test compound (11-dose 3-fold serial dilutions, 2% DMSO final) or DMSO only, 0.002% Tween-20, 1 mM DTT and 2.5 mM MgCl2 in 50 mM MOPS (3-(N-morpholino)propanesulfonic acid), pH 7.8, buffer and were initiated by addition of 75 μM ATP, following a 20-min preincubation. The reactions were conducted for 60 min at 37° C., stopped by the addition of 50 μL of 0.015 M EDTA, pH 8, and the extent of reactions (˜15-20% conversion with no inhibitor) was determined after electrophoretic separation of the fluorescently labeled peptide substrate and phosphorylated product on an LabChip EZ Reader II (PerkinElmer, Inc., Waltham, Mass.).Inhibition of HPK1 was also measured using the fluorescence based chelation-enhanced fluorescence (CHEF) method (1), using a proprietary fluorescent peptide substrate, in which a cysteine residue is alkylated with a sulfonamido-oxine based derivative to afford an amino acid termed C-Sox (CSx). The assay was conducted similarly as described for the MSA method above, but using 3 μM Ac-[CSx][…]-amide peptide substrate (also known as AQT0178 when purchased from AssayQuant Technologies Inc., Hopkinton, Mass.) and 45 μM ATP. Initial reaction velocities were determined by following the peptide fluorescence (λex=360 nm, λem=500 nm) at 30° C. for 15 min in a Tecan M1000 plate reader (Tecan Group Ltd., Männedorf, Zürich, Switzerland). […] HPK1 protein was produced in-house and preactivated by autophosphorylation of enzyme with MgATP as described in the section “Production of recombinant autophosphorylated full-length HPK1”. It is filed as single protein.
On to `CNCc1nc(NC)cc2c1CN(c1cccc(-c3nncn3C(C)C)n1)C2=O`, for which the negative-log Ki (pKi) is 9.14.
As for `Cc1nnc(-c2cccc(N3Cc4c(cc(N5CCCC5(C)C)nc4CN)C3=O)n2)n1C(C)C`, the pKi was 10.00.
On to `CCn1c(C)nnc1-c1cccc(N2Cc3c(cc(N4CCC[C@H]4C)nc3CNC)C2=O)n1`, for which the pKi is 10.05.
Consider `CNCc1nc(N2CCCC2)cc2c1CN(c1cccc(-c3nncn3[C@@H](C)CC(F)(F)F)n1)C2=O`, for which the pKi was over 10.15.
